From patent US20020115867A1, “Imidazolyl/benzimidazolyl-terminated alkylamino ethynyl alanine amino diol compounds for treatment of hypertension” (priority 1992, published 2002) come the findings set out here.

This assay addresses T1, human renin (Homo sapiens, UniProt P00797).
T1 construct: purchased National Institute for Biological Standards, London
T1 sequence (P00797 67-406): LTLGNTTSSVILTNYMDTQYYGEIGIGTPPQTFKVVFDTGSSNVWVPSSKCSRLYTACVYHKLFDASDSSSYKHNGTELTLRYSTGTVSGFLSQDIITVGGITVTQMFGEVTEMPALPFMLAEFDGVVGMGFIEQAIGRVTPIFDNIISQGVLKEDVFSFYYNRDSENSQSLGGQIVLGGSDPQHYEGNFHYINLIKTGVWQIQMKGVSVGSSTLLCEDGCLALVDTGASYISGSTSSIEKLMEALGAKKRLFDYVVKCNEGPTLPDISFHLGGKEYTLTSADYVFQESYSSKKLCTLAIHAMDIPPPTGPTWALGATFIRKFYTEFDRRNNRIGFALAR
The experiment in a line: Human renin inhibition in vitro. The assay is classed as biochemical. Conditions: human plasma angiotensinogen, pH 7.4, 37° C., two hours; angiotensin I by radioimmunoassay. How it is done: Compounds of Formula I were evaluated as inhibitors of human renin in an in vitro assay, as follows: This human renin inhibition test has been previously described in detail [Papaioannou et al., Clinical and Experimental Hypertension, A7(9), 1243-1257 (1985)]. Human renin was obtained from the National Institute for Biological Standards, London. An incubation mixture was prepared containing the following components: in a total volume of 0.25 mL: 100 mM Tris-acetate buffer at pH 7.4, 25×10^−6 Goldblatt units of renin, 0.05 mL of plasma from human volunteers taking oral contraceptives, 6.0 mM Na-EDTA, 2.4 mM phenylmethyl sulfonyl fluoride, 1.5 mM 8-hydroxyquinoline, 0.4 mg/mL bovine serum albumin (BSA), and 0.024 mg/mL neomycin sulfate. This mixture was incubated for two hours at 37° C. in the presence or absence of renin inhibitors. The produced angiotensin I was determined by radioimmunoassay (New England Nuclear kit). Test compounds to be assayed were dissolved in DMSO and diluted with 100 mM Tris-acetate buffer at pH 7.4 containing 0.5% BSA to the appropriate concentration. The final concentration of organic solvent in the reaction mixture was less than 1%. Control incubations at 37° C. were used to correct for effects of organic solvent on renin activity.

Each structure is given as a SMILES string.

Consider `C#CC[C@H](NC(=O)[C@@H](CC(=O)N(C)CCn1ccnc1)Cc1ccccc1)C(=O)N[C@@H](CC1CCCCC1)[C@@H](O)[C@@H](O)CC(C)C` (relative stereo) [Example 1, N^1-[1R*-[[[1S,1R*-(cyclohexylmethyl)-2S*,3R*-dihydroxy-5-methylhexyl]amino]carbonyl]-3-butynyl]-N^4-[2-(1H-imidazol-1-yl)ethyl]-N^4-methyl-2S*-(phenylmethyl)butanediamide], for which the midpoint of inhibition, the IC50, lay at 0.18 nM.
